Results as given in patent US8846947B2, “Benzimidazoles and related analogs as sirtuin modulators” (GlaxoSmithKline LLC, priority 2008, dated 2014).

Target: T1, SIRT1 (Homo sapiens, UniProt Q96EB6)
T1 sequence (Q96EB6 1-747): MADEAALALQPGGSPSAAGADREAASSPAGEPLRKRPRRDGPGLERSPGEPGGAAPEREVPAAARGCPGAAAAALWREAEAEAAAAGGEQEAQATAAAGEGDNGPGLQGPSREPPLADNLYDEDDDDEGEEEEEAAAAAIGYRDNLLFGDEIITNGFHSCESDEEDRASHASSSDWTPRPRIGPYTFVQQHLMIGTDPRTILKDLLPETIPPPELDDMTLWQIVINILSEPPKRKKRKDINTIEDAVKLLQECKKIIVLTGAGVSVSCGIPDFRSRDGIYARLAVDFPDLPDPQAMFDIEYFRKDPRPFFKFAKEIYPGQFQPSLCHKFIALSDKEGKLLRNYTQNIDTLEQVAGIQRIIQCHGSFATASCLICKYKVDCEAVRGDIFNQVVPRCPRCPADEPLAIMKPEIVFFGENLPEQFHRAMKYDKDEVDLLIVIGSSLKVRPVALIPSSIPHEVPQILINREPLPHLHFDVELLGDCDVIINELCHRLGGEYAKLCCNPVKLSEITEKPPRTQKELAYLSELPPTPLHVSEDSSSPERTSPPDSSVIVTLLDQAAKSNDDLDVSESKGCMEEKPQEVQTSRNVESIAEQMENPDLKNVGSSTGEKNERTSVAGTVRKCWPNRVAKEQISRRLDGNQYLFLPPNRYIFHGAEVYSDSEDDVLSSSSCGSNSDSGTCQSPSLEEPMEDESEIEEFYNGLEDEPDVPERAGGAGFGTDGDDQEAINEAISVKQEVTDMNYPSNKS
Experiment: Mass spectrometry based SIRT1 deacetylase activation assay (acetylated p53-derived peptide substrate)
Assay type: biochemical
Excerpt: A mass spectrometry based assay was used to identify modulators of SIRT1 activity. The mass spectrometry based assay utilizes a peptide having 20 amino acid residues as follows: Ac-EE-K(biotin)-GQSTSSHSK(Ac)NleSTEG-K(5TMR)-EE-NH2 (SEQ ID NO: 1) wherein K(Ac) is an acetylated lysine residue and Nle is a norleucine. The peptide is labeled with the fluorophore 5TMR (excitation 540 nm/emission 580 nm) at the C-terminus. The sequence of the peptide substrate is based on p53 with several modifications. In addition, the methionine residue naturally present in the sequence was replaced with the norleucine because the methionine may be susceptible to oxidation during synthesis and purification.
The mass spectrometry assay is conducted as follows: 0.5 μM peptide substrate and 120 μM βNAD^+ is incubated with 10 nM SIRT1 for 25 minutes at 25° C. in a reaction buffer (50 mM Tris-acetate pH 8, 137 mM NaCl, 2.7 mM KCl, 1 mM MgCl2, 5 mM DTT, 0.05% BSA). Test compounds may be added to the reaction as described above. […] After the 25 minute incubation with SIRT1, 10 μL of 10% formic acid is added to stop the reaction. Reactions are sealed and frozen for later mass spec analysis. Determination of the mass of the substrate peptide allows for precise determination of the degree of acetylation (i.e. starting material) as compared to deacetylated peptide (product).
A control for inhibition of sirtuin activity is conducted by adding 1 μL of 500 mM nicotinamide as a negative control at the start of the reaction (e.g., permits determination of maximum sirtuin inhibition). A control for activation of sirtuin activity is conducted using 10 nM of sirtuin protein, with 1 μL of DMSO in place of compound, to determine the amount of deacetylation of the substrate at a given timepoint within the linear range of the assay. This timepoint is the same as that used for test compounds and, within the linear range, the endpoint represents a change in velocity.
For the above assay, SIRT1 protein was expressed and purified as follows. […] The protein was expressed by induction with 1 mM IPTG as an N-terminal His-tag fusion protein at 18° C. overnight and harvested at 30,000×g. Cells were lysed with lysozyme in lysis buffer (50 mM Tris-HCl, 2 mM Tris[2-carboxyethyl]phosphine (TCEP), 10 μM ZnCl2, 200 mM NaCl) and further treated with sonication for 10 min for complete lysis. The protein was purified over a Ni-NTA column (Amersham) and fractions containing pure protein were pooled, concentrated and run over a sizing column (Sephadex S200 26/60 global). The peak containing soluble protein was collected and run on an Ion-exchange column (MonoQ). Gradient elution (200 mM-500 mM NaCl) yielded pure protein. This protein was concentrated and dialyzed against dialysis buffer (20 mM Tris-HCl, 2 mM TCEP) overnight. The protein was aliquoted and frozen at −80° C. until further use.
Sirtuin modulating compounds that activated SIRT1 were identified using the assay described above and are shown below in Table 1. The EC1.5 values for the activating compounds are represented by A (EC1.5<1.0 uM), B (EC1.5 1-25 uM), C (EC1.5 >25 uM). The percent maximum fold activation is represented by A (Fold activation >200%) or B (Fold Activation <200%).

Row | Structure (SMILES) | EC1.5 | Fold Act. (percent maximum fold activation)
1 | Cn1nc(-c2ccccc2)cc1-c1nc2c(C(=O)Nc3nccs3)cccc2[nH]1 [Compound 253] | A (EC1.5<1.0 uM) | A (Fold activation >200%)
2 | O=C(Nc1nccs1)c1cccc2[nH]c(-c3ccnn3-c3ccccc3)nc12 [Compound 254] | A (EC1.5<1.0 uM) | A (Fold activation >200%)
3 | O=C(Nc1nccs1)c1cccc2[nH]c(-c3ccccc3-c3ccccc3)nc12 [Compound 255] | B (EC1.5 1-25 uM) | A (Fold activation >200%)
4 | O=C(Nc1nccs1)c1cccc2[nH]c(-c3ccccc3N3CCOCC3)nc12 [Compound 256] | B (EC1.5 1-25 uM) | A (Fold activation >200%)
5 | O=C(Nc1nccs1)c1cccc2[nH]c(-c3cccc(Cl)c3F)nc12 [Compound 257] | B (EC1.5 1-25 uM) | A (Fold activation >200%)
6 | O=C(Nc1nccs1)c1cccc2[nH]c(-c3cc(Cl)ccc3C(F)(F)F)nc12 [Compound 258] | B (EC1.5 1-25 uM) | A (Fold activation >200%)
7 | CN(C)CCNc1ccc(-c2nc3c(C(=O)Nc4nccs4)cccc3[nH]2)cn1 [Compound 259] | B (EC1.5 1-25 uM) | A (Fold activation >200%)
8 | Cc1cnc(NC(=O)c2cccc3[nH]c(-c4cccc(C(F)(F)F)c4)nc23)s1 [Compound 260] | B (EC1.5 1-25 uM) | B (Fold Activation <200%)
9 | Cc1noc(C)c1NC(=O)c1cccc2[nH]c(-c3cccc(C(F)(F)F)c3)nc12 [Compound 261] | C (EC1.5 >25 uM) | B (Fold Activation <200%)
10 | O=C(Nc1ccncc1)c1cccc2[nH]c(-c3ccccc3C(F)(F)F)nc12 [Compound 262] | A (EC1.5<1.0 uM) | A (Fold activation >200%)
11 | O=C(Nc1nccs1)c1cccc2[nH]c(-c3ccc(F)cc3C(F)(F)F)nc12 [Compound 263] | A (EC1.5<1.0 uM) | A (Fold activation >200%)
12 | O=C(Nc1nccs1)c1cccc2[nH]c(-c3c(F)cccc3C(F)(F)F)nc12 [Compound 264] | B (EC1.5 1-25 uM) | A (Fold activation >200%)
13 | O=C(Nc1nccs1)c1cccc2[nH]c(-c3c(F)cccc3F)nc12 [Compound 265] | B (EC1.5 1-25 uM) | A (Fold activation >200%)
14 | O=C(Nc1nccs1)c1cccc2[nH]c(-c3c(F)cccc3Cl)nc12 [Compound 266] | B (EC1.5 1-25 uM) | A (Fold activation >200%)
15 | O=C(Nc1nccs1)c1cccc2[nH]c(-c3ccccc3CN3CCOCC3)nc12 [Compound 267] | B (EC1.5 1-25 uM) | A (Fold activation >200%)
16 | O=C(Nc1nccs1)c1cccc2[nH]c(-c3ccc(N4CCOCC4)cc3)nc12 [Compound 268] | A (EC1.5<1.0 uM) | A (Fold activation >200%)
17 | O=C(Nc1nccs1)c1cccc2[nH]c(-c3ccnc(N4CCOCC4)c3)nc12 [Compound 269] | A (EC1.5<1.0 uM) | A (Fold activation >200%)
18 | O=C(NC1CN2CCC1CC2)c1cccc2[nH]c(-c3cccc(C(F)(F)F)c3)nc12 (stereo not shown) [Compound 272] | B (EC1.5 1-25 uM) | A (Fold activation >200%)

Results, then the compound that gave them:

Row | EC1.5 | Fold Act. (percent maximum fold activation) | Structure (SMILES)
19 | C (EC1.5 >25 uM) | B (Fold Activation <200%) | O=C(NCc1cccnc1)c1cccc2[nH]c(-c3cccc(C(F)(F)F)c3)nc12 [Compound 270]
20 | C (EC1.5 >25 uM) | B (Fold Activation <200%) | O=C(NCc1ccncc1)c1cccc2[nH]c(-c3cccc(C(F)(F)F)c3)nc12 [Compound 271]
21 | B (EC1.5 1-25 uM) | A (Fold activation >200%) | O=C(NC1CCOC1=O)c1cccc2[nH]c(-c3cccc(C(F)(F)F)c3)nc12 (stereo not shown) [Compound 273]
22 | A (EC1.5<1.0 uM) | A (Fold activation >200%) | Cc1nc(NC(=O)c2cccc3[nH]c(-c4cccc(C(F)(F)F)c4)nc23)sc1C [Compound 274]
23 | B (EC1.5 1-25 uM) | A (Fold activation >200%) | O=C(NC1CCOCC1)c1cccc2[nH]c(-c3cccc(C(F)(F)F)c3)nc12 [Compound 275]
24 | C (EC1.5 >25 uM) | B (Fold Activation <200%) | O=C(NC1CCCC1)c1cccc2[nH]c(-c3cccc(C(F)(F)F)c3)nc12 [Compound 276]
25 | B (EC1.5 1-25 uM) | A (Fold activation >200%) | O=C(Nc1ccncn1)c1cccc2[nH]c(-c3cccc(C(F)(F)F)c3)nc12 [Compound 277]
26 | B (EC1.5 1-25 uM) | A (Fold activation >200%) | Cc1cc(NC(=O)c2cccc3[nH]c(-c4cccc(C(F)(F)F)c4)nc23)n(C)n1 [Compound 278]
27 | A (EC1.5<1.0 uM) | A (Fold activation >200%) | Cc1cc(C)nc(NC(=O)c2cccc3[nH]c(-c4cccc(C(F)(F)F)c4)nc23)c1 [Compound 279]
28 | B (EC1.5 1-25 uM) | A (Fold activation >200%) | O=C(Nc1nccs1)c1cccc2[nH]c(-c3ccccc3N3CCCC3)nc12 [Compound 280]
29 | A (EC1.5<1.0 uM) | A (Fold activation >200%) | Cc1cc(-c2nc3c(C(=O)Nc4nccs4)cccc3[nH]2)n(C)n1 [Compound 281]
30 | B (EC1.5 1-25 uM) | A (Fold activation >200%) | O=C(Nc1nccs1)c1cccc2[nH]c(-c3cccnc3N3CCNCC3)nc12 [Compound 282]
31 | B (EC1.5 1-25 uM) | A (Fold activation >200%) | O=C(Nc1nc(-c2ccccc2)cs1)c1cccc2[nH]c(-c3cccc(C(F)(F)F)c3)nc12 [Compound 283]
32 | B (EC1.5 1-25 uM) | A (Fold activation >200%) | O=C(Nc1nc2ccccc2s1)c1cccc2[nH]c(-c3cccc(C(F)(F)F)c3)nc12 [Compound 284]
33 | B (EC1.5 1-25 uM) | A (Fold activation >200%) | O=C(Nc1ccc(Cl)cn1)c1cccc2[nH]c(-c3cccc(C(F)(F)F)c3)nc12 [Compound 285]
34 | B (EC1.5 1-25 uM) | A (Fold activation >200%) | O=C(Nc1cccnc1Cl)c1cccc2[nH]c(-c3cccc(C(F)(F)F)c3)nc12 [Compound 286]
35 | A (EC1.5<1.0 uM) | A (Fold activation >200%) | O=C(Nc1ccncc1)c1cccc2[nH]c(-c3cccc(N4CCOCC4)c3)nc12 [Compound 287]
